In EP4125905B1, “REGIMEN FOR TREATING A NEISSERIA GONORRHOEAE INFECTION WITH GEPOTIDACIN” (GlaxoSmithKline Intellectual Property Development Limited, priority 2020, dated 2021):
≈ marks a conversion by molar mass, not a printed value. Like-named read-outs stand apart in the source and are kept apart here.

How the values were obtained:
[1] = test system: NG clinical isolate; test: microbe, parasite or virus in culture; assay type: cell-based; settings: Neisseria gonorrhoeae
[2] = test system: NG isolate; assay type: cell-based, Neisseria gonorrhoeae
Experimental: The results were discussed in VanScoy BD et al., A Hollow-Fiber Infection Model to Evaluate the Prevention of On- Therapy Resistance of Neisseria gonorrhoeae to Gepotidacin.
10 mL of an initial bacterial density of 10^6 colony forming units (CFU)/mL was inoculated into the hollow-fiber cartridge (Fibercell Systems, Frederick, MD), utilizing modified FB medium.
Samples were collected for observation of simulated pharmacokinetic profiles and enumeration of bacterial burden over the study duration. All bacterial samples were plated on drug-free and agar supplemented with 2 x the agar MIC value of each respective challenge compound.

[3] = Plasma and pulmonary (ELF, AM) pharmacokinetics after intravenous gepotidacin in healthy adult subjects; assay type: in vivo, human
Experimental: (§1) Gepotidacin exposures were assessed in plasma and other matrices, such as urine, saliva, epithelial lining fluid (ELF), Alveolar Macrophages (AM), cervix, rectum and pharynx, as follows: • 1. Plasma, Epithelial Lining Fluid (ELF) and Alveolar Macrophage (AM) samples: A study to evaluate plasma and pulmonary pharmacokinetics (PK) following intravenous administration of gepotidacin in healthy adult subjects was conducted (see M Hossain, EF Dumont. Population Pharmacokinetic Modeling of Plasma and Epithelial Lining Fluid Data for a Novel Antimicrobial Compound. 54th Annual Interscience Conference on Antimicrobial Agents and Chemotherapy Meeting, 5-9 September 2014, Washington, D.C., USA). • 2. Saliva, Urine and plasma samples: • a. A single-dose study to assess the PK of oral gepotidacin in male and female adult participants with varying degrees of hepatic impairment and in matched control participants with normal hepatic function (J. Hands et al. Pharmacokinetics of Gepotidacin in Subjects with Hepatic Impairment. ID Week, 2-6 October 2019, Washington DC, USA) • b. A single-dose study to assess the PK of gepotidacin in adult subjects with varying degrees of renal impairment and in matched control subjects with normal renal function • 3. Urine, plasma, cervix, rectum and pharynx swabs: In a Phase 2a, single-center, single-arm, open-label study in the Unites States from July 2018 to January 2019 (see Overcash et al., Open Forum Infectious Diseases, Volume 6, Issue Supplement 2, October 2019, Page S539, https://doi.org/10.1093/ofid/ofz360.1343), a total of 22 female participants with uncomplicated Urinary Tract Infection (uUTI) were enrolled and evaluated for pharmacokinetics (PK), safety, and clinical efficacy. Participants were confined to the clinic from baseline (Days -1 to 1 predose) through on-therapy (Days 1 to 5) and returned as outpatients for test-of-cure (TOC; Days 10 to 13) and follow-up (Day 28t3). Participants received oral gepotidacin 1,500 mg twice daily (BID) for 5 days. […] The majority of participants were white, age ranged from 19 to 60 years, and body mass index ranged from 20.9 to 37.9 kg/m^2. The number of past uUTI episodes ranged from 0 to 10 over the past 12 months across participants; the majority of participants reported ≤2 episodes. The mean total clinical symptom score at baseline was 7.9 (range: 4 to 12). All participants reported frequency and urgency, and all but 1 participant (5%) reported dysuria. Gepotidacin exposures in urine, cervix, rectum and pharynx were assessed.
Plasma, Epithelial Lining Fluid (ELF) and Alveolar Macrophage (AM) PK were assessed following a single IV infusion of 1000 mg gepotidacin over 2 hours. […] Concentrations in AM and ELF changed in a similar manner as in plasma over the 12-hour sampling period.

[4] = Single-dose saliva, urine and plasma PK of oral gepotidacin in hepatic impairment and matched controls; assay type: in vivo, human; settings: for urinary exposure (AUC[0-48]) relative to matched healthy controls: 1500 mg orally
Experimental: Gepotidacin exposures were assessed in plasma and other matrices, such as urine, saliva, epithelial lining fluid (ELF), Alveolar Macrophages (AM), cervix, rectum and pharynx, as follows: • 1. Plasma, Epithelial Lining Fluid (ELF) and Alveolar Macrophage (AM) samples: A study to evaluate plasma and pulmonary pharmacokinetics (PK) following intravenous administration of gepotidacin in healthy adult subjects was conducted (see M Hossain, EF Dumont. Population Pharmacokinetic Modeling of Plasma and Epithelial Lining Fluid Data for a Novel Antimicrobial Compound. 54th Annual Interscience Conference on Antimicrobial Agents and Chemotherapy Meeting, 5-9 September 2014, Washington, D.C., USA). • 2. Saliva, Urine and plasma samples: • a. A single-dose study to assess the PK of oral gepotidacin in male and female adult participants with varying degrees of hepatic impairment and in matched control participants with normal hepatic function (J. Hands et al. Pharmacokinetics of Gepotidacin in Subjects with Hepatic Impairment. ID Week, 2-6 October 2019, Washington DC, USA) • b. A single-dose study to assess the PK of gepotidacin in adult subjects with varying degrees of renal impairment and in matched control subjects with normal renal function • 3. Urine, plasma, cervix, rectum and pharynx swabs: In a Phase 2a, single-center, single-arm, open-label study in the Unites States from July 2018 to January 2019 (see Overcash et al., Open Forum Infectious Diseases, Volume 6, Issue Supplement 2, October 2019, Page S539, https://doi.org/10.1093/ofid/ofz360.1343), a total of 22 female participants with uncomplicated Urinary Tract Infection (uUTI) were enrolled and evaluated for pharmacokinetics (PK), safety, and clinical efficacy. […] Gepotidacin exposures in urine, cervix, rectum and pharynx were assessed.
(§2) Saliva, Urine and Plasma concentrations were determined after administration of gepotidacin 750 mg IV (healthy and renally impaired subjects) and 1500 mg orally (healthy and hepatically impaired subjects, as well as uUTI patients). […]

[5] = Single-dose saliva, urine and plasma PK of gepotidacin in renal impairment and matched controls; assay type: in vivo, human
Experimental: as §1, §2

[6] = Phase 2a study in female participants with uUTI: urine, plasma, cervical, rectal and pharyngeal swab PK and safety; assay type: in vivo, human
Experimental: as §1
Plasma, cervix, rectum and pharynx swabs were collected after administration of gepotidacin 1500 mg BID to uUTI patients. […] TABLE 1 Summary of gepotidacin cervical, rectal, pharyngeal, and free plasma concentration time data (µg/ml) (pharmacokinetic population)

[7] = test system: NG clinical isolate; test: MIC determination in fastidious broth (FB) medium modified to lack agarose; assay type: cell-based; settings: Neisseria gonorrhoeae, read-out: gepotidacin broth MIC
Experimental: The NG clinical isolate evaluated was known to be ciprofloxacin-resistant (minimum inhibitory concentration [MIC]= 2 mg/L), susceptible to ceftriaxone (MIC = 0.004 mg/L), and with a gepotidacin agar/broth MIC of 1/0.5 mg/L. The isolate was collected during the Phase 2 clinical study mentioned above, and contained the mutation, ParC D86N.
In order to evaluate the MIC of each challenge compound under the liquid conditions utilized in the HFIM, MIC values were determined using fastidious broth (FB) medium modified to lack agarose.

[8] = Safety and pharmacokinetics in healthy adults and adolescents; assay type: in vivo, human
Experimental: Healthy adults and adolescents within the age ranges of 19-64 and 12-17 years old, respectively, participated in the study.
In Part 1 of the study, gepotidacin was administered with food to healthy adults (≥ 18 years) in period 1 (1500 mg oral single dose), followed by period 2 (3000 mg x 2 oral doses Q12h) and period 3 (3000 mg x 2 oral doses Q6h).
In Part 2 of the study, gepotidacin was administered with food to adolescents (12 to < 18 years) at the same dose regimens as period 1 (1500 mg oral single dose) and period 3 (3000 mg x 2 oral doses Q6h).

[9] = test system: urogenital NG; settings: cited from earlier work
[10] = test system: urogenital NG isolates; settings: cited from earlier work
[11] = single IV infusion of 1000 mg over 2 hours, AM versus ELF
[12] = 1500 mg BID, Day 4, 2 hours postdose
[13] = Period 1, 1500 mg oral single dose

CO/N=C(\C(=O)N[C@@H]1C(=O)N2C(C(=O)O)=C(CSc3nc(=O)c(=O)[nH]n3C)CS[C@H]12)c1csc(N)n1 [ceftriaxone, reference compound]
MIC ([1]; read-out: minimum inhibitory concentration [MIC]): 0.004 µg/mL (≈ 0.00721 µM) | performance of controls in the hollow fibre infection model ([2]; isolate resistant to ciprofloxacin and susceptible to ceftriaxone, simulated 0.5 g oral ciprofloxacin, 0.25 g IM ceftriaxone): performed as expected

O=c1ccc2ncc(=O)n3c2n1C[C@H]3CN1CCC(NCc2cc3c(cn2)OCCC3)CC1 [gepotidacin, (2R)-2-({4-[(3,4-Dihydro-2H-pyrano[2,3-c]pyridin-6-ylmethyl)amino]-1-piperidinyl}methyl)-1,2-dihydro-3H,8H-2a,5,8a-triazaacenaphthylene-3,8-dione]
Kp ([3]; human, alveolar macrophages / free plasma, single IV infusion of 1000 mg over 2 hours, read-out: AUC(0-12) ratio of AM to free plasma): 178 | Kp ([3]; human, epithelial lining fluid / free plasma, single IV infusion of 1000 mg over 2 hours, read-out: AUC(0-12) ratio of ELF to free plasma): 1.84 | fraction unbound ([3]; human, plasma, read-out: gepotidacin free fraction): 0.67 | AM exposure AUC(0-12), higher than in ELF [3, 11]: ~97 fold | AM exposure Cmax, higher than in ELF [3, 11]: approximately 120 fold | Kp ([4]; human, saliva / unbound plasma, stated across the renal and hepatic impairment studies, read-out: ratio of saliva AUC to unbound plasma AUC (RAUC)): ≥ 0.75 | urinary exposure (AUC[0-48]) relative to matched healthy controls ([4]; moderate hepatic impairment): approximately 3.2 fold | urinary exposure (AUC[0-48]) relative to matched healthy controls ([4]; severe hepatic impairment): ~3.9 fold | gepotidacin dose excreted in the urine ([5]; ESRD subjects on hemodialysis): Less than 2% | gepotidacin dose removed in the urine (fe%) ([5]; End-Stage Renal Disease (ESRD) subjects not on hemodialysis): 7.9% | gepotidacin dose removed in the urine (fe%) ([5]; moderate renal impairment subjects): 22.1% | gepotidacin dose removed in the urine (fe%) ([5]; normal renal function subjects): 37.4% | Cervical concentration, Maximum [6, 12]: 4.25 µg/mL | Cervical concentration, Mean [6, 12]: 1.03 µg/mL | Cervical concentration, Minimum [6, 12]: 0.0190 µg/mL | Free plasma concentration, Maximum [6, 12]: 7500 ng/mL | Free plasma concentration, Mean [6, 12]: 3940 ng/mL | Free plasma concentration, Minimum [6, 12]: 938 ng/mL | Pharyngeal concentration, Maximum [6, 12]: 0.527 µg/mL | Pharyngeal concentration, Mean [6, 12]: 0.140 µg/mL | Pharyngeal concentration, Minimum [6, 12]: 0.0118 µg/mL | Rectal concentration, Maximum [6, 12]: 90.90 µg/mL | Rectal concentration, Mean [6, 12]: 12.3 µg/mL | Rectal concentration, Minimum [6, 12]: 0.0989 µg/mL | Cervical concentration, Maximum ([6]; 1500 mg BID, Day 4, Predose): 5.94 µg/mL | Cervical concentration, Mean ([6]; 1500 mg BID, Day 4, Predose): 1.30 µg/mL | Cervical concentration, Minimum ([6]; 1500 mg BID, Day 4, Predose): 0.0601 µg/mL | Free plasma concentration, Maximum ([6]; 1500 mg BID, Day 4, Predose): 1330 ng/mL | Free plasma concentration, Mean ([6]; 1500 mg BID, Day 4, Predose): 618 ng/mL | Free plasma concentration, Minimum ([6]; 1500 mg BID, Day 4, Predose): 308 ng/mL | Pharyngeal concentration, Maximum ([6]; 1500 mg BID, Day 4, Predose): 0.165 µg/mL | Pharyngeal concentration, Mean ([6]; 1500 mg BID, Day 4, Predose): 0.0330 µg/mL | Pharyngeal concentration, Minimum ([6]; 1500 mg BID, Day 4, Predose): 0.00275 µg/mL | Rectal concentration, Maximum ([6]; 1500 mg BID, Day 4, Predose): 36.30 µg/mL | Rectal concentration, Mean ([6]; 1500 mg BID, Day 4, Predose): 6.04 µg/mL | Rectal concentration, Minimum ([6]; 1500 mg BID, Day 4, Predose): 0.0678 µg/mL | discontinuations due to adverse events (AEs) ([6]; oral 1,500 mg BID for 5 days, uUTI participants): no discontinuations due to adverse events | urine Ctau exposures ([6]; uUTI patients, 1500 mg BID, from Day 3 onwards): 322 to 352 µg/mL | minimum gepotidacin urine concentrations ([6]; uUTI patients, remained above MIC over the 12-hour dosing interval): > 4 µg/mL | MIC ([1]; read-out: gepotidacin MIC): 1 µg/mL (≈ 2.23 µM) | MIC ([1]; read-out: gepotidacin agar MIC): 1 µg/mL (≈ 2.23 µM) | MIC [7]: 0.5 µg/mL (≈ 1.11 µM) | doses preventing amplification of resistance within the system ([2]; gepotidacin-resistant subpopulation on Day 7): ≥ 4.5 g | total daily doses that prevented resistance amplification ([2]; including 2 doses of 3g administered 8 or 12 hours apart): ≥ 4500 mg | doses sterilizing the system ([2]; over the seven-day period, simulated single oral doses 0.75 to 12 g): ≥ 4.5 g | tolerability ([8]; 1500 mg oral single dose, adults and adolescents, few mild GI AEs): generally well tolerated | maximum concentration (Cmax), adolescents compared to adults [8, 13]: similar | median area under the curve (AUC), adolescents compared to adults [8, 13]: slightly higher | AUC following the second dose, adolescents versus adults ([8]; Period 3, Q6h regimen): higher | Cmax following the second dose, adolescents versus adults ([8]; Period 3, Q6h regimen): similar | subjects above the value of potential clinical concern, observed ([8]; adolescents Q6h, 3000 mg x 2 oral doses): 58% | subjects above the value of potential clinical concern, observed ([8]; adults Q6h, 3000 mg x 2 oral doses): 46% | subjects above the value of potential clinical concern, observed ([8]; adults Q12h, 3000 mg x 2 oral doses): 15% | AUC0-t exposures following the first dose, Q12 versus Q6h ([8]; adults, 3000 mg dose level): similar | accumulation ratios, Q6h as compared to Q12h ([8]; adults, 3000 mg x 2 oral doses): Higher | safety issues related to QT or AchE-I ([8]; in vivo): No observed safety issues | participants who failed therapy at the urogenital body site ([9]; Phase II study, total): 3 | microbiological successes (bacterial eradication) ([9]; of the 8 participants with D86N-positive baseline urogenital NG isolates): 5 | efficacy (bacterial eradication) against urogenital infection caused by NG ([9]; single oral dose 1.5g (1500 mg)): ≥ 95% | efficacy (bacterial eradication) against urogenital infection caused by NG ([9]; single oral dose 3g (3000 mg)): ≥ 95% | baseline gepotidacin MIC ([10]; 2 microbiological successes with D86N-positive baseline organisms): 1 µg/mL | TOC gepotidacin MICs ([10]; 2 posttreatment isolates that had become resistant): ≥ 32 µg/mL
